Experimental data as given in patent US10329302B2, “Bicyclic-fused heteroaryl or aryl compounds” (Pfizer Inc., priority 2014, dated 2019).

Target: human IRAK4 FL (Full Length) (Homo sapiens (Human), UniProt Q9NWZ3)
Assay: IRAK4 Enzymatic DELFIA Assay, Protocol A
Format: biochemical
Conditions: human IRAK4 FL, 0.6 mM ATP (KM); read-out: IRAK4 DELFIA Protocol A IC50

human IRAK4 FL (Full Length), sequence (Q9NWZ3 whole entry): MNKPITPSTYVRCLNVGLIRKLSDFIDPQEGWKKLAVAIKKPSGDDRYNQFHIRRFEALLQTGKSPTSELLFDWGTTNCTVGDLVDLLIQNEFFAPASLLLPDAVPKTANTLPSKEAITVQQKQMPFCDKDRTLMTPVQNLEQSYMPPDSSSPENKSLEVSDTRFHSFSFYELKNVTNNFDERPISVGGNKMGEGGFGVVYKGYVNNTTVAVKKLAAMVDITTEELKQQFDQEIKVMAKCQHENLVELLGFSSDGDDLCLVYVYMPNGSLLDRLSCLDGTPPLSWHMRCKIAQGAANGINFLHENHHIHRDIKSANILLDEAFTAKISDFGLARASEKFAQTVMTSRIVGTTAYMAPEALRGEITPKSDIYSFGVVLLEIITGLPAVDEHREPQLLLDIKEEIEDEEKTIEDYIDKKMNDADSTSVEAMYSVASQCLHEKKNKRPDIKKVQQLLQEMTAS

Compared with CCOc1cc2c(OC[C@H]3NC(=O)[C@@H]4C[C@H]34)ccnc2cc1C(N)=O [Example 280, 6-ethoxy-4-{[(1S,2S,5R)-4-oxo-3-azabicyclo[3.1.0]hex-2-yl]methoxy}quinoline-7-carboxamide], CC(C)Oc1cc2c(OCC3NC(=O)C4CCCCC34)nccc2cc1C(N)=O (stereo not drawn) [Example 118, 1-[(3-oxooctahydro-1H-isoindol-1-yl)methoxy]-7-(propan-2-yloxy)isoquinoline-6-carboxamide] is 23-fold lower in IC50: 3790 nM for the first, 162 nM for the second.

Going from CC(C)Oc1cc2c(OC[C@H]3NC(=O)C[C@@H]3C(F)(F)F)nccc2cc1C(N)=O [Example 155, 1-{[(2S,3S)-5-oxo-3-(trifluoromethyl)pyrrolidin-2-yl]methoxy}-7-(propan-2-yloxy)isoquinoline-6-carboxamide] to CC(C)Oc1cc2c(OC[C@@H]3C[C@@](C)(F)C(=O)N3)nccc2cc1C(N)=O [Example 133, 1-{[(2S,4R)-4-fluoro-4-methyl-5-oxopyrrolidin-2-yl]methoxy}-7-(propan-2-yloxy)isoquinoline-6-carboxamide], the IC50 falls from 267 nM to 175 nM (1.5-fold).

First: CC(C)Oc1c(C(N)=O)cc2ccnc(OC[C@@H]3CCC(=O)N3)c2c1F [Example 176, 8-fluoro-1-{[(2S)-5-oxopyrrolidin-2-yl]methoxy}-7-(propan-2-yloxy)isoquinoline-6-carboxamide]
Second: NC(=O)c1cc2ccnc(OC[C@@H]3CCC(=O)N3)c2cc1OC(F)F [Example 129, 7-(difluoromethoxy)-1-{[(2S)-5-oxopyrrolidin-2-yl]methoxy}isoquinoline-6-carboxamide]
The IC50 of the first is 3-fold higher: 695 nM for the first, 231 nM for the second. The second is the more potent here.

First: NC(=O)c1cc2ccnc(OC[C@@H]3CCC(=O)N3)c2cc1OCC1CC1 [Example 204, 7-(cyclopropylmethoxy)-1-{[(2S)-5-oxopyrrolidin-2-yl]methoxy}isoquinoline-6-carboxamide]
Second: COc1cc2c(OC[C@@H]3C[C@H](CC#N)C(=O)N3)nccc2cc1C(N)=O [Example 224, 1-{[(2S,4R)-4-(cyanomethyl)-5-oxopyrrolidin-2-yl]methoxy}-7-methoxyisoquinoline-6-carboxamide]
The IC50 of the first is 1.8-fold higher: 2060 nM for the first, 1170 nM for the second.

Compared with CC(C)Oc1cc2c(OC[C@@H]3C[C@H](C4(O)COC4)C(=O)N3)nccc2cc1C(N)=O [Example 192, 1-{[(2S,4R)-4-(3-hydroxyoxetan-3-yl)-5-oxopyrrolidin-2-yl]methoxy}-7-(propan-2-yloxy)isoquinoline-6-carboxamide], CC(C)Oc1cc2c(OCC3CN(C(=O)CC#N)C3)nccc2cc1C(N)=O [Example 69, 1-{[1-(cyanoacetyl)azetidin-3-yl]methoxy}-7-(propan-2-yloxy)isoquinoline-6-carboxamide] is 9.8-fold lower in IC50: 284 nM for the first, 29 nM for the second. The second is the more potent here.

First: CC(C)Oc1cc2c(OC[C@@H]3CCC(=O)N3)ncc(C#N)c2cc1C(N)=O [Example 190, 4-cyano-1-{[(2S)-5-oxopyrrolidin-2-yl]methoxy}-7-(propan-2-yloxy)isoquinoline-6-carboxamide]
Second: Cc1cnc(OC[C@@H]2CCC(=O)N2)c2cc(OC(C)C)c(C(N)=O)cc12 [Example 05, 4-methyl-1-{[(2S)-5-oxopyrrolidin-2-yl]methoxy}-7-(propan-2-yloxy)isoquinoline-6-carboxamide]
The IC50 of the first is 3.5-fold higher: 294 nM for the first, 84 nM for the second. The second is the more potent here.

First: COc1cc2c(OC[C@H]3NC(=O)[C@@H]4[C@@H](C)[C@@H]43)c(Cl)cnc2cc1C(N)=O [Example 321, 3-chloro-6-methoxy-4-{[(1S,2S,5R)-6-methyl-4-oxo-3-azabicyclo[3.1.0]hex-2-yl]methoxy}quinoline-7-carboxamide]
Second: COc1cc2c(OC[C@H]3NC(=O)CC3(C)C)nccc2cc1C(N)=O [Example 221, 1-{[(2S)-3,3-dimethyl-5-oxopyrrolidin-2-yl]methoxy}-7-methoxyisoquinoline-6-carboxamide]
The IC50 of the first is 78-fold higher: 4190 nM for the first, 54 nM for the second. The second is the more potent here.

COc1cc2c(OC[C@@H]3C[C@H](CC(F)(F)F)C(=O)N3)nccc2cc1C(N)=O [Example 270, 7-methoxy-1-{[(2S,4R)-5-oxo-4-(2,2,2-trifluoroethyl)pyrrolidin-2-yl]methoxy}isoquinoline-6-carboxamide] gave an IC50 of 290 nM.
